Laboratory results as given in article PMC3210913 (Psychopharmacology, 2011).

System: serotonin 5-HT1A receptor
Test: in vivo PET displacement of [carbonyl-11C]WAY-100635
Set-up: species or system Macaca fascicularis
Settings: 300 µg/kg i.v. cariprazine, raphe nuclei, ketamine/xylazine anaesthesia

Sequence of serotonin 5-HT1A receptor (UPI0032B04AFA 1-422): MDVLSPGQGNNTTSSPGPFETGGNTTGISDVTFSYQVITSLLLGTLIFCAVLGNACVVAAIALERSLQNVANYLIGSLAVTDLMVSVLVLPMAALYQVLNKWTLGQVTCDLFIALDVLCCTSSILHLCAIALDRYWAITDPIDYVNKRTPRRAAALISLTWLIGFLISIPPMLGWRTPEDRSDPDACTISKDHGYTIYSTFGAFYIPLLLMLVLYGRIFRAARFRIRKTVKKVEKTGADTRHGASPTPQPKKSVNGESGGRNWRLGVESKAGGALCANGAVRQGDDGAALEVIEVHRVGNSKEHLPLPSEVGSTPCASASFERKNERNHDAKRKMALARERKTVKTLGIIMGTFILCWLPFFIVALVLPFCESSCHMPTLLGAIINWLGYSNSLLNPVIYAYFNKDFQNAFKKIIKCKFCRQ

SMILES: CN(C)C(=O)N[C@H]1CC[C@H](CCN2CCN(c3cccc(Cl)c3Cl)CC2)CC1 [cariprazine]
- Receptor occupancy (%) / Cariprazine (μg/kg) / 300: 30%
